# Earlier results, collected in patent US10487314B2, “Inhibition of serotonin expression in gut enteroendocrine cells results in conversion to insulin-positive cells” (priority 2014, dated 2019).
# Tests used:
# ALDH1A3 mRNA = settings: human prostate
# 5-HT2B = 5-HT2B (Homo sapiens, UniProt P41595)
# 5-HT2B, sequence (P41595 whole entry, species assumed): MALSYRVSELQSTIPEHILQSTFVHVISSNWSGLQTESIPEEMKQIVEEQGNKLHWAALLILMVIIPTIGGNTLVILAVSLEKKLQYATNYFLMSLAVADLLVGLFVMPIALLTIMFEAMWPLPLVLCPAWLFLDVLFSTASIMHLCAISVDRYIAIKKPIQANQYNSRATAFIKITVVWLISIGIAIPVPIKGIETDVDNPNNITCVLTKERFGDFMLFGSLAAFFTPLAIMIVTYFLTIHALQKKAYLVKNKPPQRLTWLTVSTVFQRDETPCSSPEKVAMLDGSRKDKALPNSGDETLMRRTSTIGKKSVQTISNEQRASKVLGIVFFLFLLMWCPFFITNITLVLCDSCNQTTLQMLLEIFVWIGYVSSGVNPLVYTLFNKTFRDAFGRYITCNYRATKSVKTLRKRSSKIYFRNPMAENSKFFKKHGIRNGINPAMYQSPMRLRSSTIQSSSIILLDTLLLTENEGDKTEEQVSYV
structure (smiles),measurement,setting,value
"C[C@]12CCC(=O)C[C@@H]1CC[C@@H]1[C@@H]2CC[C@]2(C)[C@@H](O)CC[C@@H]12 [Androgen dihydrotestosterone (DHT), dihydrotestosterone]",increase in ALDH1A3 mRNA levels,ALDH1A3 mRNA,4 fold
Cc1cc([N+](=O)[O-])c(N2CCN(Cc3ccccc3)CC2)cc1N [EGIS-7625],selectivity over 5-HT2A,5-HT2B,high selectivity
"CC(C)c1cc(-c2ccc(F)c3ccccc23)nc(N)n1 [RS-127,445]",oral bioavailability,,orally bioavailable
same,affinity for 5-HT2B,5-HT2B,high affinity
same,subtype selectivity,5-HT2B; 5-HT2B versus other subtypes,1000 ×
